We go through 2 substances from PMC4468002 (Bioorganic & medicinal chemistry, 2015).

In one data set the target is human D3R (Homo sapiens, UniProt P35462). The data set can be described thus: Radioligand competition binding, [3H]N-methylspiperone, D3R. The conditions noted are these: ratio of Ki values; Table 2.
The nature of data set [1]: Phase I metabolic stability in mouse liver microsomes with NADPH. Format: in vitro ADME. The conditions noted are these: 60 min incubation, 1 μM compound. Background: Liver microsomes are vesicles of endoplasmic reticulum, rich in cytochrome P450 enzymes.

Sequence of human D3R (P35462 whole entry): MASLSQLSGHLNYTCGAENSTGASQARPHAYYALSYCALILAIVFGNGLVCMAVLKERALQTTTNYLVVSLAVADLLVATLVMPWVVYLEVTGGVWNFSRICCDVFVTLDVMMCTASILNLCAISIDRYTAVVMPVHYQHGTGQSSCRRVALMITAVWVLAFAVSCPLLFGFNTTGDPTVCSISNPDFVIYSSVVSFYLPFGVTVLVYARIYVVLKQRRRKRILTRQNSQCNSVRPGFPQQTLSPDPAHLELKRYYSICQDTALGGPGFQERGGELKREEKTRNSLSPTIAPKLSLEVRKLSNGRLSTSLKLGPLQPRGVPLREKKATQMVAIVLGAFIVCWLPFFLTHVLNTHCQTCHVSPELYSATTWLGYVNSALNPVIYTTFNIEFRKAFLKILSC

Consider “1-(4-(2,3-Dichlorophenyl)piperazin-1-yl)-4-(4-(quinolin-3-yl)-1H-1,2,3-triazol-1-yl)butan-2-ol [17b]”, for which the “Receptor selectivity D2/D3” value on human D3R was found to be 14. Further, the “percent original compound remaining” value in data set [1] is reported as 26%.

Consider “5-(4-(4-(4-(2-Methoxyphenyl)piperazin-1-yl)butyl)-1H-1,2,3-triazol-1-yl)quinoline [9d]”, for which, at human D3R, the “Receptor selectivity D2/D3” value is given as 6.3 and the “Receptor selectivity D4/D3” value came to 40.
